Results reported in US6589957B2, “Compounds and methods of use for treatment of neurogenic inflammation” (Harbor Branch Oceanographic Institution, Inc., priority 1998, dated 2003).

What follows are compounds tested on resiniferatoxin (RTX)-induced mouse ear edema (assay: Inhibition of resiniferatoxin-induced inflammation (edema) of the mouse ear). Conditions: 50 μg/ear topically in acetone together with RTX 0.1 μg/ear, 30-minute incubation, relative to control group edema.
Assay type: in vivo
Method: Inhibition of Resiniferatoxin-Induced Inflammation (Edema) of the Mouse Ear
Induction of mouse ear edema can be conducted by known methods (Inoue, 1-f., N. Nagata, Y. Koshffiara [1993]). Compounds to be tested for anti-neurogenic inflammatory activity are topically applied in acetone to the ears of mice in a solution that includes the edema-causing irritant resiniferatoxin (RTX). RTX alone (0.1 μg/ear) or in combination with various dilutions of test compound are applied to both sides of the left ears (5 mice per treatment group) and acetone is applied to all right ears. After a 30-minute incubation, the mice are sacrificed, the ears removed, and bores taken and weighed. Edema is measured by subtracting the weight of the right ear (acetone control) from the weight of the left ear (treated). Results are recorded as % decrease (inhibition) or % increase (potentiation) in edema relative to the control group edema.
Bis-heterocycle compounds of the subject invention, e.g., the bis-indole compounds, show significant anti-inflammatory properties.

| Compound | inhibition of RTX-induced edema |
| --- | --- |
| Nc1ncc(C(Cc2nc(C(=O)c3c[nH]c4cc(O)ccc34)[nH]c2-c2c[nH]c3cc(Br)ccc23)C(=O)O)[nH]1 (stereo not drawn) [topsentin d] | approximately 96.9% |
| CC(c1cnc(N)[nH]1)c1nc(C(=O)c2c[nH]c3cc(O)ccc23)[nH]c1-c1c[nH]c2cc(Br)ccc12 (stereo not drawn) [topsentin e] | approximately 88.4% |
| CC1c2[nH]c(N)nc2C2(O)CC1c1c(-c3cnc(-c4c[nH]c5cc(Br)ccc45)c(=O)[nH]3)c[nH]c1C2=O (stereo not drawn) [dragmacidin f] | approximately 69.9% |
